Measurements published in patent US9980979B2, “Compounds and methods for enhancing erythropoiesis” (NATIONAL YANG-MING UNIVERSITY, priority 2008, dated 2018).

Legend:
[1] = system: cisplatin-induced acute renal failure animal model; assay: cisplatin-induced acute renal failure animal model: red blood cell count and blood urea nitrogen; type: in vivo, C57BL/6JNarl mice
Protocol: The effects of Compound A treatment on cisplatin-induced acute renal failure animal model were investigated. C57BL/6JNarl mice (8-week-old) were purchased from the National Laboratory Animal Center (NLAC, Taiwan). Cisplatin (Sigma-Aldrich) was dissolved in normal saline (0.9% (w/v) sodium chloride, Sigma-Aldrich) at a concentration of 1 mg/ml, and injected into mice intraperitoneally (i.p.) according to the following schedule: day 1, 7 mg/kg; day 5, 6 mg/kg; and day 9, 6 mg/kg. For cisplatin-untreated normal mice group, normal saline injections of corresponding volumes were given i.p. in parallel. At day 13, serum samples were collected and blood urea nitrogen (BUN) contents were assayed. Cisplatin-injected mice with BUN levels more than 100 mg/dl and the cisplatin-untreated normal mice were further divided into 5 groups, 6 mice per group, for feeding with Compound A for 2 weeks: (1) Normal group: Mice were injected with normal saline and followed by feeding with a standard diet; (2) Control group: Mice were injected with cisplatin and followed by feeding with a standard diet; (3) Pomu 10 mg/kg/day group: Mice were injected with cisplatin and followed by feeding with Compound A at the dose of 10 mg/kg/day; (4) Pomu 30 mg/kg/day group: Mice were injected with cisplatin and followed by Compound A at the dose of 30 mg/kg/day; (5) Pomu 90 mg/kg/day group: Mice were injected with cisplatin and followed by Compound A treatment at the dose of 90 mg/kg/day. Blood samples were collected from the retro-orbital sinus of mice at day 0, 5, 10, 13, 18, 23 and 28. Red blood cell (RBC) concentrations were determined by complete blood cell count using Sysmex® Kx-21 hematology analyzer. Blood urea nitrogen (BUN) levels were determined by urease GLDH method (Urea FS, DiaSys). Results were expressed as mean±S.E. (n=5˜6). Statistical significance was evaluated by Student's t test (##P<0.01 versus normal group and **P<0.01 versus control group). […] The horizontal arrow in FIGS. 7 and 8 represents Compound A treatment (mg/Kg/day). […] The results were in agreement with the ability of the Compound A in enhancing erythropoiesis.

erythropoietin (Epo) = assay: liver expression of Epo in cisplatin-induced acute renal failure animal model (PCR); type: in vivo, mouse; conditions: 30~90 mg/kg/day, day 28, versus untreated control group; FIG. 9
Protocol: The effects of Compound A treatment on cisplatin-induced acute renal failure animal model were investigated. C57BL/6JNarl mice (8-week-old) were purchased from the National Laboratory Animal Center (NLAC, Taiwan). Cisplatin (Sigma-Aldrich) was dissolved in normal saline (0.9% (w/v) sodium chloride, Sigma-Aldrich) at a concentration of 1 mg/ml, and injected into mice intraperitoneally (i.p.) according to the following schedule: day 1, 7 mg/kg; day 5, 6 mg/kg; and day 9, 6 mg/kg. For cisplatin-untreated normal mice group, normal saline injections of corresponding volumes were given i.p. in parallel. At day 13, serum samples were collected and blood urea nitrogen (BUN) contents were assayed. […]
At the end of the experiments described in EXAMPLE 6 (i.e., day 28), mice were sacrificed, kidney and liver tissues were removed, and bone marrow cells were isolated. […] The reverse-transcribed cDNA samples were analyzed by PCR using ABI GeneAmp™ system 2700 (Applied Biosystems) and the SYBR Green Master Mix kit (Applied Biosystems) using primers targeting toward mouse glyceraldehyde 3-phosphate dehydrogenase (GAPDH) (SEQ ID NOs: 5 and 6), erythropoietin (Epo) (SEQ ID NOs: 3 and 4) and hepatocyte growth factor (HGF) (SEQ ID NOs: 7 and 8) (Table 1). Results were expressed as relative index±S.E. (n=5˜6). […]

[2] = comparison with 3,4′,5-trihydroxy-trans-stilbene (data not shown)

In the case of `OC[C@H]1O[C@@H](Oc2c(O)cc(O)cc2/C=C/c2ccc(O)cc2)[C@H](O)[C@@H](O)[C@@H]1O` [Compound A, 2,3,5,4′-tetrahydroxystilbene 2-O-β-D-glucopyranoside], the “number of red blood cells (RBCs)” value ([1]; 30~90 mg/kg/day in feed for 2 weeks, time course, FIG. 5) is reported as “increased the number of red blood cells”, the “serum BUN levels” value ([1]; 30~90 mg/kg/day in feed for 2 weeks, time course, FIG. 6) is reported as “decreased serum BUN levels” and the “number of RBCs at day 23” value ([1]; 30~90 mg/kg/day, day 23, versus control group, FIG. 7) is reported as “significantly increased the number of RBCs”. For the same compound, the “serum BUN levels at day 23” value ([1]; 30~90 mg/kg/day, day 23, versus control group, FIG. 8) was “decreasing serum BUN levels”, the “expression of Epo in liver (relative index)” value (erythropoietin (Epo)) was “significantly increased the expression of Epo in liver” and the “enhancing renal functions and improving anemia, compared with 3,4′,5-trihydroxy-trans-stilbene” value ([2]; data not shown) was “superior to 3,4′,5-trihydroxy-trans-stilbene”. For the same compound, the “enhancing erythropoiesis and kidney functions, compared with 3,4′,5-trihydroxy-trans-stilbene” value ([2]; no data shown) was “superior to 3,4′,5-trihydroxy-trans-stilbene”.
